*1 amine or outer side, *2 acyl side, *3 side chain or, on linkers, in order; H or OH if unused. Where a SMILES comes first, the peptide text is derived from it. Side-chain parts run from the residue outwards. [ ]: non-standard residue; d: D form. The star is where a group is joined. X18 = CCCCCCCCCCCCCCCC(=O)N[C@@H](CCC(=O)N[C@@H](CCC(=O)N[C@@H](CCC(=O)NCCCC[C@H](NC(=O)CCC(=O)NCCCOCCOCCOCCCNC(=O)CCC(=O)NCCCOCCOCCOCCCNC(=O)CCC(=O)NCCCOCCOCCOCCCN*)C(N)=O)C(=O)O)C(=O)O)C(=O)O; X15 = CCCCCCCCCCCCCCCCCC(=O)N[C@@H](CCC(=O)N[C@@H](CCC(=O)N[C@@H](CCC(=O)NCCCOCCOCCOCCCNC(=O)COCC(=O)NCCCOCCOCCOCCCNC(=O)COCC(=O)NCCCOCCOCCOCCCNC(=O)COCC(=O)*)C(=O)O)C(=O)O)C(=O)O; γGlu = O=C(O)[C@H](CCC(=O)[*:2])N[*:1]; 1Nal = N[C@@H](Cc1cccc2ccccc12)C(=O)O; Stearoyl = CCCCCCCCCCCCCCCCCC(=O)*; αMeK = C[C@](N)(CCCCN)C(=O)O; Lauroyl = CCCCCCCCCCCC(=O)*; Nle = CCCC[C@H](N)C(=O)O; AEEA = NCCOCCOCC(=O)O; Aib = CC(C)(N)C(=O)O

The assay concerns the target T1, RXFP1 (Homo sapiens, UniProt Q9HBX9).
T1 construct: OVCAR5 cells expressing endogenous RXFP1; endogenous in cells; host or cells: OVCAR5 cells
T1 sequence (Q9HBX9 1-757): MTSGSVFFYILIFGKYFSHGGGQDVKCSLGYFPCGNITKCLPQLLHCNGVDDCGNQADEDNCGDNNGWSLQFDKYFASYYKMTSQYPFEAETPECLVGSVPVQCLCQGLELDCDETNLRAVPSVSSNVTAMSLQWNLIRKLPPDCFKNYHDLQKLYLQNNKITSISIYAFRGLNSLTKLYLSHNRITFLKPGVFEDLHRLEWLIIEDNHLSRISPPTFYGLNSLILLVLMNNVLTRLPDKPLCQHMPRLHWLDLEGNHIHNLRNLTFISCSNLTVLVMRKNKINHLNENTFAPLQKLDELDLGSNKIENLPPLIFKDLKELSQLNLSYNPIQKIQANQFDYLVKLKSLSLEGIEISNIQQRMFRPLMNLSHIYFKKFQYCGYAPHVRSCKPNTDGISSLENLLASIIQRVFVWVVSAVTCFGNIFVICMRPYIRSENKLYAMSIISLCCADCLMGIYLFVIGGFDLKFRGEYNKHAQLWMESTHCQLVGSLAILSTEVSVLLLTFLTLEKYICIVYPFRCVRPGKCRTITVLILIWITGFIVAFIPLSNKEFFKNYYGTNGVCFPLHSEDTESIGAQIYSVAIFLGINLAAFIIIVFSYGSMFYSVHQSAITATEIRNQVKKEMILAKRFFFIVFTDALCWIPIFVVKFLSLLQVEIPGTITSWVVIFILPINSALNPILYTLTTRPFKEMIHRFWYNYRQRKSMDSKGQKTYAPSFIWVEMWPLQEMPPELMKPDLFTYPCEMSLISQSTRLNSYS
Put plainly: OVCAR5 cAMP assay (HTRF), RXFP1 agonist activity. It counts as cell-based. The note with it: for Emax: OVCAR-5, maximal cAMP relative to H2-relaxin maximum (100%), read-out: EMax, OVCAR 5 cells (cAMP); for EC50: OVCAR5 cells, cAMP HTRF, read-out: EC50 (nM), OVCAR 5 cells (cAMP). The source says:
OVCAR5 cells expressing endogenous RXFP1 were used to test RXP1 agonist properties of peptides of the invention, and in particular of the peptides of sequence SEQ ID NO: 1-193.
Since RXFP1 is a Gs coupled GPCR, cAMP was used as readout of RXFP1 activation.
Isobutyl Methyl Xanthine (IBMX) was used to inhibit phosphodiesterase activity facilitating cAMP measurements. HTRF (Homogenous Time Resolved Fluorescence) technology was used to detect cAMP due to its great sensitivity.
In summary, OVCAR5 were grown in regular medium (RPMI) containing 10% fetal calf serum (FCS) and 1% antibiotics (penicillin/streptomycin).
Before the experiments, cells were detached with accutase and incubated for 40 minutes at 37° C. with 1 mM (3-isobutyl-1-methylxanthine) IBMX.
Cells were then distributed in 384 black well plates containing increasing concentrations of the different peptides in a fix volume of medium (without FCS).
After an incubation of 30 min at 37° C. in an humid incubator in 5% CO2, the reaction was stopped by adding a fixed volume of a solution containing a lysis buffer and cAMP-D2 (cAMP labeled with the dye d2) and the anti cAMP antibody linked to Europium and used for cAMP detection.
Readout of the experiment were performed on a fluorimeter allowing HTRF measurement. Activation curves were generated by plotting the intracellular value of cAMP versus log 10 of the compound concentration.
The 50% activation concentration (EC50) was calculated by nonlinear regression using the sigmoidal dose-response (variable slope) equation with Prism 5 software.
Emax % is determined as the maximal intracellular value of cAMP for test compound (upper limit of cAMP vs concentration curve) divided by the maximal intracellular value of cAMP for H2-relaxin determined in the same test occasion multiplied by 100. Emax %=100×[cAMPtest cpd]/[cAMPH2-RlX]

Usually Emax stands for the size of the effect at its maximum, as opposed to the concentration needed. Regarding `CCCCCCCCCCCCCCCCCC(=O)N[C@@H](CCC(=O)N[C@@H](CCC(=O)N[C@@H](CCC(=O)NCCCOCCOCCOCCCNC(=O)COCC(=O)NCCCOCCOCCOCCCNC(=O)COCC(=O)NCCCOCCOCCOCCCNC(=O)COCC(=O)NCCCC[C@H](NC(=O)[C@H](CCCCNC(C)=O)NC(=O)[C@H](CCCCN)NC(=O)[C@H](CCCNC(=N)N)NC(=O)C(C)(C)NC(=O)[C@H](CO)NC(=O)[C@H](Cc1c[nH]c2ccccc12)NC(=O)[C@@H](NC(=O)[C@H](CO)NC(=O)[C@H](CCCC)NC(=O)CNC(=O)[C@H](CCC(=O)O)NC(=O)C(C)(C)NC(=O)C(C)(C)NC(=O)[C@@H](NC(=O)[C@H](CCCCNC(C)=O)NC(=O)[C@H](C)NC(=O)[C@H](CCCNC(=N)N)NC(=O)[C@@H](NC(=O)[C@H](CCCCN)NC(=O)[C@H](CCC(=O)O)NC(=O)[C@H](CCCNC(=N)N)NC(=O)CNC(=O)[C@H](CCC(=O)O)NC(=O)[C@H](CC(C)C)NC(C)=O)C(C)C)[C@@H](C)CC)[C@@H](C)O)C(N)=O)C(=O)O)C(=O)O)C(=O)O` [compound 96] (Ac-LEGREKVRAK(Ac)I[Aib][Aib]EG[Nle]STWS[Aib]RKK(Ac)K(X15)-NH2), the Emax stood at 89%. With `CCCCCCCCCCCCCCCC(=O)N[C@@H](CCC(=O)N[C@@H](CCC(=O)N[C@@H](CCC(=O)NCCCC[C@H](NC(=O)CCC(=O)NCCCOCCOCCOCCCNC(=O)CCC(=O)NCCCOCCOCCOCCCNC(=O)CCC(=O)NCCCOCCOCCOCCCNC(=O)[C@H](CCCCNC(C)=O)NC(=O)[C@H](C)NC(=O)[C@H](CCCNC(=N)N)NC(=O)[C@](C)(CCCCN)NC(=O)[C@H](CO)NC(=O)[C@H](Cc1ccccc1)NC(=O)[C@@H](NC(=O)[C@H](CO)NC(=O)[C@H](CCCC)NC(=O)CNC(=O)[C@H](CCC(=O)O)NC(=O)C(C)(C)NC(=O)C(C)(C)NC(=O)[C@@H](NC(=O)[C@H](CCCCNC(C)=O)NC(=O)[C@H](C)NC(=O)[C@H](CCCNC(=N)N)NC(=O)[C@@H](NC(=O)[C@H](CCCCN)NC(=O)[C@H](CCC(=O)O)NC(=O)[C@H](CCCNC(=N)N)NC(=O)CNC(=O)[C@H](CCC(=O)O)NC(=O)[C@H](CC(C)C)NC(C)=O)C(C)C)[C@@H](C)CC)[C@@H](C)O)C(N)=O)C(=O)O)C(=O)O)C(=O)O` [compound 187] (Ac-LEGREKVRAK(Ac)I[Aib][Aib]EG[Nle]STFS[αMeK]RAK(Ac)-X18), the Emax stood at 100%. As a reminder, the EC50 is the concentration at which the effect is half-maximal. For `CCCCCCCCCCCCCCCCCC(=O)N[C@@H](CCC(=O)NCCOCCOCC(=O)N[C@@H](CCC(=O)N[C@@H](CCC(=O)N[C@@H](CCC(=O)NCCOCCOCC(=O)NCCOCCOCC(=O)NCCCC[C@H](NC(=O)[C@H](CCCCN)NC(=O)[C@H](CCCCN)NC(=O)[C@H](CCCNC(=N)N)NC(=O)C(C)(C)NC(=O)[C@H](CO)NC(=O)[C@H](Cc1cccc2ccccc12)NC(=O)[C@@H](NC(=O)[C@H](CO)NC(=O)[C@H](CCCC)NC(=O)CNC(=O)[C@H](CCC(=O)O)NC(=O)C(C)(C)NC(=O)C(C)(C)NC(=O)[C@@H](NC(=O)[C@H](CCCCNC(C)=O)NC(=O)[C@H](C)NC(=O)[C@H](CCCNC(=N)N)NC(=O)[C@@H](NC(=O)[C@H](CCCCN)NC(=O)[C@H](CCC(=O)O)NC(=O)[C@H](CCCNC(=N)N)NC(=O)CNC(=O)[C@H](CCC(=O)O)NC(=O)[C@H](CC(C)C)NC(C)=O)C(C)C)[C@@H](C)CC)[C@@H](C)O)C(N)=O)C(=O)O)C(=O)O)C(=O)O)C(=O)O` [compound 103] (Ac-LEGREKVRAK(Ac)I[Aib][Aib]EG[Nle]ST[1Nal]S[Aib]RKKK([AEEA-AEEA-γGlu-γGlu-γGlu-AEEA-γGlu-Stearoyl])-NH2), the EC50 came to 0.09 nM and the Emax was determined as 79%. `CCCCCCCCCCCCCCCCCC(=O)N[C@@H](CCC(=O)N[C@@H](CCC(=O)N[C@@H](CCC(=O)NCCOCCOCC(=O)NCCOCCOCC(=O)NCCOCCOCC(=O)NCCOCCOCC(=O)NCCOCCOCC(=O)NCCCC[C@H](NC(=O)[C@H](CCCCN)NC(=O)[C@H](CCCCN)NC(=O)[C@H](CCCNC(=N)N)NC(=O)C(C)(C)NC(=O)[C@H](CO)NC(=O)[C@H](Cc1c[nH]c2ccccc12)NC(=O)[C@@H](NC(=O)[C@H](CO)NC(=O)[C@H](CCCC)NC(=O)CNC(=O)[C@H](CCC(=O)O)NC(=O)C(C)(C)NC(=O)C(C)(C)NC(=O)[C@@H](NC(=O)[C@H](CCC(N)=O)NC(=O)[C@H](C)NC(=O)[C@H](CCCNC(=N)N)NC(=O)[C@@H](NC(=O)[C@H](CCCCN)NC(=O)[C@H](CCC(=O)O)NC(=O)[C@H](CCCNC(=N)N)NC(=O)CNC(=O)[C@H](CCC(=O)O)NC(=O)[C@H](CC(C)C)NC(C)=O)C(C)C)[C@@H](C)CC)[C@@H](C)O)C(N)=O)C(=O)O)C(=O)O)C(=O)O` [compound 93] (Ac-LEGREKVRAQI[Aib][Aib]EG[Nle]STWS[Aib]RKKK([AEEA-AEEA-AEEA-AEEA-AEEA-γGlu-γGlu-γGlu-Stearoyl])-NH2): the half-maximal effective concentration (EC50) is 0.14 nM and the Emax came to 87%. Regarding `CCCCCCCCCCCCCCCCCC(=O)N[C@@H](CCC(=O)N[C@@H](CCC(=O)N[C@@H](CCC(=O)NCCOCCOCC(=O)NCCOCCOCC(=O)NCCOCCOCC(=O)NCCCC[C@H](NC(=O)[C@H](CCCCN)NC(=O)[C@H](CCCNC(=N)N)NC(=O)C(C)(C)NC(=O)[C@H](CO)NC(=O)[C@H](Cc1cccc2ccccc12)NC(=O)[C@@H](NC(=O)[C@H](CO)NC(=O)[C@H](CCCC)NC(=O)CNC(=O)[C@H](CCC(=O)O)NC(=O)C(C)(C)NC(=O)C(C)(C)NC(=O)[C@@H](NC(=O)[C@H](CCCCNC(C)=O)NC(=O)C(C)(C)NC(=O)[C@H](CCCNC(=N)N)NC(=O)[C@@H](NC(=O)[C@H](CCCCN)NC(=O)[C@H](CCC(=O)O)NC(=O)[C@H](CCCNC(=N)N)NC(=O)CNC(=O)[C@H](CCC(=O)O)NC(=O)[C@H](CC(C)C)NC(C)=O)C(C)C)[C@@H](C)CC)[C@@H](C)O)C(N)=O)C(=O)O)C(=O)O)C(=O)O` [compound 80] (Ac-LEGREKVR[Aib]K(Ac)I[Aib][Aib]EG[Nle]ST[1Nal]S[Aib]RKK([AEEA-AEEA-AEEA-γGlu-γGlu-γGlu-Stearoyl])-NH2), the Emax was 68%. Same read-out and setting: the value for `CCCCCCCCCCCC(=O)N[C@@H](CCC(=O)N[C@@H](CCC(=O)N[C@@H](CCC(=O)N[C@@H](CCC(=O)NCCCC[C@H](NC(=O)COCCOCCNC(=O)COCCOCCNC(=O)COCCOCCNC(=O)COCCOCCNC(=O)[C@H](CCCCNC(C)=O)NC(=O)[C@H](C)NC(=O)[C@H](CCCNC(=N)N)NC(=O)[C@](C)(CCCCN)NC(=O)[C@H](CO)NC(=O)[C@H](Cc1ccccc1)NC(=O)[C@@H](NC(=O)[C@H](CO)NC(=O)[C@H](CCC(N)=O)NC(=O)CNC(=O)[C@H](CCC(=O)O)NC(=O)C(C)(C)NC(=O)C(C)(C)NC(=O)[C@@H](NC(=O)[C@H](CCCCNC(C)=O)NC(=O)[C@H](C)NC(=O)[C@H](CCCNC(=N)N)NC(=O)[C@@H](NC(=O)[C@H](CCCCN)NC(=O)[C@H](CCC(=O)O)NC(=O)[C@H](CCCNC(=N)N)NC(=O)CNC(=O)[C@H](CCC(=O)O)NC(=O)[C@H](CC(C)C)NC(C)=O)C(C)C)[C@@H](C)CC)[C@@H](C)O)C(N)=O)C(=O)O)C(=O)O)C(=O)O)C(=O)O` [compound 161] (Ac-LEGREKVRAK(Ac)I[Aib][Aib]EGQSTFS[αMeK]RAK(Ac)[AEEA][AEEA][AEEA][AEEA]K([γGlu-γGlu-γGlu-γGlu-Lauroyl])-NH2) was 94%.
